The text below walks through data of patent publication US7064120B2, “Tricyclic pyridyl carboxamides and derivatives thereof tocolytic oxytocin receptor antagonists” (Wyeth, priority 2001, dated 2006).

The target of the first assay is T1, human oxytocin receptor (Homo sapiens, UniProt P30559).
T1 construct: host or cells: CHO cells, stably transfected (pcDNA3.1 vector)
T1 sequence (P30559 1-389): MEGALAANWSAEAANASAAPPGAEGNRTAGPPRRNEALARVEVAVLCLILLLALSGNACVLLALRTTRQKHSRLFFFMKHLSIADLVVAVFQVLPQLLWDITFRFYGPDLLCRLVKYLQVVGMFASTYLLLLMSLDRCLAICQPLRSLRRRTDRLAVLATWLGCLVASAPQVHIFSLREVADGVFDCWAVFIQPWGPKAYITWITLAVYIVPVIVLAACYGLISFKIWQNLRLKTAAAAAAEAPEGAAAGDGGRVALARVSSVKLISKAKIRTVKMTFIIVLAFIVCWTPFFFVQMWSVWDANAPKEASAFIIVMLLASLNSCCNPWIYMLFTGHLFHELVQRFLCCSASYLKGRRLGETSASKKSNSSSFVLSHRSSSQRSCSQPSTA
As to the kind of experiment: Oxytocin binding in CHO cell membranes expressing human oxytocin receptors ([3H]oxytocin radioligand binding). To be noted: 100 nM, read-out: OT % inhibition @ 100 nM. The essentials: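 Values are % inhibition at one concentration or nM IC50 from [3H]oxytocin displacement. Membranes from human oxytocin receptor CHO cells, 25–50 μg protein/well, 60 min at room temperature, pH 7.4 Tris buffer with protease inhibitors; bound label by filtration and scintillation counting.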
Regarding `Cc1ccccc1-c1ccc(C(=O)N2Cc3ccc(C(=O)NCc4ccncc4)n3Cc3ccccc32)cc1C` [Example 89, 10-[(2,2′-Dimethyl-[1,1′-biphenyl]-4-yl)carbonyl]-N-(4-pyridinylmethyl)-10,11-dihydro-5H-pyrrolo[2,1-c][1,4]benzodiazepine-3-carboxamide], the inhibition at 0.1 µM worked out at 67%.

In the case of `COc1cccc(-c2ccc(C(=O)N3Cc4ccc(C(=O)NCc5ccncc5)n4Cc4ccccc43)cc2C)c1` [Example 90, 10-[(3′-Methoxy-2-methyl-[1,1′-biphenyl]-4-yl)carbonyl]-N-(4-pyridinylmethyl)-10,11-dihydro-5H-pyrrolo[2,1-c][1,4]benzodiazepine-3-carboxamide], the inhibition at 0.1 µM was found to be 44%.

On to `COc1ccccc1-c1ccc(C(=O)N2Cc3ccc(C(=O)NCc4ccncc4)n3Cc3ccccc32)cc1` [Example 91, 10-[(2′-Methoxy-[1,1′-biphenyl]-4-yl)carbonyl]-N-(4-pyridinylmethyl)-10,11-dihydro-5H-pyrrolo[2,1-c][1,4]benzodiazepine-3-carboxamide], for which the inhibition at 0.1 µM worked out at 44%.

Regarding `Cc1ccccc1-c1ccc(C(=O)N2Cc3ccc(C(=O)NCc4ccncc4)n3Cc3ccccc32)cc1` [Example 92, 10-[(2′-Methyl-[1,1′-biphenyl]-4-yl)carbonyl]-N-(4-pyridinylmethyl)-10,11-dihydro-5H-pyrrolo[2,1-c][1,4]benzodiazepine-3-carboxamide], the inhibition at 0.1 µM stood at 30%.

As to `COc1cc(C(=O)N2Cc3ccc(C(=O)NCc4ccncc4)n3Cc3ccccc32)ccc1-c1ccccc1C` [Example 93, 10-[(2-Methoxy-2′-methyl-[1,1′-biphenyl]-4-yl)carbonyl]-N-(4-pyridinylmethyl)-10,11-dihydro-5H-pyrrolo[2,1-c][1,4]benzodiazepine-3-carboxamide], the inhibition at 0.1 µM stood at 69%.

Take `COc1cc(-c2ccccc2C)c(Cl)cc1C(=O)N1Cc2ccc(C(=O)NCc3ccncc3)n2Cc2ccccc21` [Example 94, 10-[(6-Chloro-3-methoxy-2′-methyl-[1,1′-biphenyl]-4-yl)carbonyl]-N-(4-pyridinylmethyl)-10,11-dihydro-5H-pyrrolo[2,1-c][1,4]benzodiazepine-3-carboxamide]: the inhibition at 0.1 µM came to 37%.

As to `COc1cccc(-c2cc(OC)c(C(=O)N3Cc4ccc(C(=O)NCc5ccncc5)n4Cc4ccccc43)cc2Cl)c1` [Example 95, 10-[(6-Chloro-3,3′-dimethoxy-[1,1′-biphenyl]-4-yl)carbonyl]-N-(4-pyridinylmethyl)-10,11-dihydro-5H-pyrrolo[2,1-c][1,4]benzodiazepine-3-carboxamide], the inhibition at 0.1 µM was 7%.

For the molecule `COc1cc(C(=O)N2Cc3ccc(C(=O)NCc4ccncc4)n3Cc3ccccc32)ccc1-c1cccc2ccccc12` [Example 96, 10-[3-Methoxy-4-(naphthalen-1-yl)benzoyl]-N-(4-pyridinylmethyl)-10,11-dihydro-5H-pyrrolo[2,1-c][1,4]benzodiazepine-3-carboxamide], the inhibition at 0.1 µM was 28%.

For the molecule `COc1ccccc1-c1ccc(C(=O)N2Cc3ccc(C(=O)NCc4ccncc4)n3Cc3ccccc32)cc1OC` [Example 97, 10-[(2,2′-Dimethoxy-[1,1′-biphenyl]-4-yl)carbonyl]-N-(4-pyridinylmethyl)-10,11-dihydro-5H-pyrrolo[2,1-c][1,4]benzodiazepine-3-carboxamide], the inhibition at 0.1 µM was found to be 36%.

With `O=C(NCc1ccncc1)c1ccc2n1Cc1ccccc1N(C(=O)c1ccc(-c3cccc4ccccc34)cc1Cl)C2` [Example 99, 10-[2-Chloro-4-(naphthalen-1-yl)benzoyl]-N-(4-pyridinylmethyl)-10,11-dihydro-5H-pyrrolo[2,1-c][1,4]benzodiazepine-3-carboxamide], the inhibition at 0.1 µM amounted to 13%.

Consider `Cc1cc(C(=O)N2Cc3ccc(C(=O)NCc4ccncc4)n3Cc3ccccc32)ccc1-c1ccccc1C(F)(F)F` [Example 100, 10-{[2-Methyl-2′-trifluoromethyl-[1,1′-biphenyl]-4-yl]carbonyl}-N-(4-pyridinylmethyl)-10,11-dihydro-5H-pyrrolo[2,1-c][1,4]benzodiazepine-3-carboxamide], for which the inhibition at 0.1 µM is 24%.

Regarding `COc1ccccc1-c1ccc(C(=O)N2Cc3ccc(C(=O)N(C)Cc4cccnc4)n3Cc3ccccc32)cc1` [Example 104, 10-[(2′-Methoxy-[1,1′-biphenyl]-4-yl)carbonyl]-N-methyl-N-(3-pyridinylmethyl)-10,11-dihydro-5H-pyrrolo[2,1-c][1,4]benzodiazepine-3-carboxamide], the inhibition at 0.1 µM is 99%.

With `Cc1ccccc1-c1ccc(C(=O)N2Cc3ccc(C(=O)N(C)Cc4cccnc4)n3Cc3ccccc32)cc1` [Example 105, N-Methyl-10-[(2′-methyl-[1,1′-biphenyl]-4-yl)carbonyl]-N-(3-pyridinylmethyl)-10,11-dihydro-5H-pyrrolo[2,1-c][1,4]benzodiazepine-3-carboxamide], the inhibition at 0.1 µM was -9%.

The assay is the same for the next values; noted with them: value in parentheses, read-out: OT (IC50).
On to `COc1ccccc1-c1ccc(C(=O)N2Cc3ccc(C(=O)N(C)Cc4cccnc4)n3Cc3ccccc32)cc1C` [Example 101, 10-[(2′-Methoxy-2-methyl-[1,1′-biphenyl]-4-yl)carbonyl]-N-methyl-N-(3-pyridinylmethyl)-10,11-dihydro-5H-pyrrolo[2,1-c][1,4]benzodiazepine-3-carboxamide], for which the IC50 stood at 2.23 nM.

For `COc1cccc(-c2ccc(C(=O)N3Cc4ccc(C(=O)N(C)Cc5cccnc5)n4Cc4ccccc43)cc2C)c1` [Example 102, 10-[(3′-Methoxy-2-methyl-[1,1′-biphenyl]4-yl)carbonyl]-N-methyl-N-(3-pyridinyImethyl)-10,11-dihydro-5H-pyrrolo[2,1-c][1,4]benzodiazepine-3-carboxamide], the IC50 was 4.14 nM.

On to `COc1ccccc1-c1ccc(C(=O)N2Cc3ccc(C(=O)N(C)Cc4cccnc4)n3Cc3ccccc32)cc1OC` [Example 103, 10-[(2,2′-Dimethoxy-[1,1′-biphenyl]-4-yl)carbonyl]-N-methyl-N-(3-pyridinylmethyl)-10,11-dihydro-5H-pyrrolo[2,1-c][1,4]benzodiazepine-3-carboxamide], for which the IC50 amounted to 6.25 nM.

As for `Cc1cc(C(=O)N2Cc3ccc(C(=O)N(C)Cc4cccnc4)n3Cc3ccccc32)ccc1-c1ccccc1C(F)(F)F` [Example 112, N-Methyl-10-{[2-methyl-2′-trifluoromethyl-[1,1′-biphenyl]-4-yl]carbonyl}-N-(3-pyridinylmethyl)-10,11-dihydro-5H-pyrrolo[2,1-c][1,4]benzodiazepine-3-carboxamide], the IC50 was 3.87 nM.

Take `COc1ccccc1-c1ccc(C(=O)N2Cc3ccc(C(=O)N4CCN(c5ccncc5)CC4)n3Cc3ccccc32)cc1C` [Example 113, {10-[(2′-Methoxy-2-methyl-[1,1′-biphenyl]-4-yl)carbonyl]-10,11-dihydro-5H-pyrrolo[2,1-c][1,4]benzodiazepin-3-yl}[4-(4-pyridinyl)-1-piperazinyl]methanone]: the IC50 was found to be 10.8 nM.

The inhibition is the change of the read-out against control, counted positive when it falls. One may read the IC50 as the concentration that gives 50% inhibition.
